Data taken from patent publication US7932262B2 (Novartis AG, priority 2006, dated 2011).

What was measured:
PC3MM cells = assay: Cell Proliferation Assay (Cell Titer Glo), PC3MM; assay type: cell-based; details: cell proliferation, PC3MM cells; read-out: CPEC50 PC3MM
Summary of the method: (§1)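 Cells seeded at 1000/well, allowed to adhere 3-5 h, then exposed to DMSO-dissolved compounds for 3 days at 37° C., 5% CO2. Medium replaced before Cell Titer Glo addition; luminescence read after 10 min.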

PDK1 kinase = target: T1, PDK1 kinase (Homo sapiens, UniProt O15530); assay: PDK1 Kinase Alpha Screen Assay; assay type: biochemical; details: PDK1 Kinase Alpha Screen Assay; read-out: PDK1 IC50
T1 sequence (O15530 1-556): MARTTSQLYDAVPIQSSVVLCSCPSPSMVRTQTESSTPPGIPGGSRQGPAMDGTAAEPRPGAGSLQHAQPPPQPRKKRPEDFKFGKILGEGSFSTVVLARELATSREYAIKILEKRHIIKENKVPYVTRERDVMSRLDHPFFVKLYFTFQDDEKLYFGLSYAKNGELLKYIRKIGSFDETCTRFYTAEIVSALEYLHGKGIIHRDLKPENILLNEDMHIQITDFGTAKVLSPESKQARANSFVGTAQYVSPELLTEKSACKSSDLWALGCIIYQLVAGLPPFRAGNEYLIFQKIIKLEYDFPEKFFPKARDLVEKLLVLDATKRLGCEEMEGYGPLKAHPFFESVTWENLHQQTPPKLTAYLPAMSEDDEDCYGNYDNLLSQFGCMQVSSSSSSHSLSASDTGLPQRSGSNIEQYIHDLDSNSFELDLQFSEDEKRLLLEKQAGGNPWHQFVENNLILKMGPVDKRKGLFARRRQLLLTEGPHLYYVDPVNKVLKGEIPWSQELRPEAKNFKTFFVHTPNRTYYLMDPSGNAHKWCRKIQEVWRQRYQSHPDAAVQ
Summary of the method: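 PDK1 phosphorylated 50 nM biotinylated PDK1-4 peptide with 10 uM ATP in Tris pH 7.5, 10 mM MgCl2, 2 mM DTT, 2.5% DMSO for 3-18 hours. After EDTA stop, phosphopeptide was detected by AlphaScreen using phospho-(Ser/Thr) PKA substrate antibody with protein A/streptavidin beads, read after overnight incubation.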

A2780 cells = assay: Cell Proliferation Assay (Cell Titer Glo), A2780; assay type: cell-based; details: Homo sapiens; cell proliferation, A2780 cells; read-out: CPEC50 A2780
Summary of the method: as §1

SMILES | EC50 (PC3MM cells) | IC50 (PDK1 kinase) | EC50 (A2780 cells)
CN1CCN(S(=O)(=O)c2ccc(Nc3ncc4cccc(OC5CCNCC5)c4n3)cc2)CC1 [Compound 778, N-(4-(4-methylpiperazin-1-ylsulfonyl)phenyl)-8-(piperidin-4-yloxy)quinazolin-2-amine] | < 5 µM | < 5 µM | < 5 µM
NS(=O)(=O)c1ccc(Nc2ncc3cccc(-c4ccnc(N5CCS(=O)(=O)CC5)c4)c3n2)cc1 [Compound 754] | < 5 µM | < 5 µM | < 5 µM
CN1CCN(C(=O)c2cccc(-c3cccc4cnc(Nc5ccc(S(N)(=O)=O)cc5)nc34)c2)CC1 [Compound 822, 4-(8-(3-(4-methylpiperazine-1-carbonyl)phenyl)quinazolin-2-ylamino)benzenesulfonamide] | < 5 µM | < 5 µM | < 5 µM
NS(=O)(=O)c1ccc(Nc2ncc3cccc(-c4ccnc(F)c4)c3n2)cc1 [Compound 741, 4-(8-(2-fluoropyridin-4-yl)quinazolin-2-ylamino)benzenesulfonamide] | < 5 µM | < 5 µM | < 5 µM
CN1CCCC(Oc2cccc3cnc(Nc4ccc(S(N)(=O)=O)cc4)nc23)C1 (stereo not drawn) [Compound 733, 4-(8-(1-methylpiperidin-3-yloxy)quinazolin-2-ylamino)benzenesulfonamide] | < 5 µM | < 5 µM | < 5 µM
CC(=O)c1ccc(-c2cccc3cnc(Nc4ccc(S(N)(=O)=O)cc4)nc23)cc1 [Compound 731, 4-(8-(4-acetylphenyl)quinazolin-2-ylamino)benzenesulfonamide] | < 5 µM | < 5 µM | 5 to 10 µM
CN1CCN(C(=O)c2ccc3cnc(Nc4ccc(S(N)(=O)=O)cc4)nc3c2)CC1 [Compound 798, 4-(7-(4-methylpiperazine-1-carbonyl)quinazolin-2-ylamino)benzenesulfonamide] | 10 to 25 µM | 10 to 25 µM | 5 to 10 µM
COc1cncc(-c2ccc3cnc(Nc4ccc(S(N)(=O)=O)cc4)nc3c2)c1 [Compound 801, 4-(7-(5-methoxypyridin-3-yl)quinazolin-2-ylamino)benzenesulfonamide] | < 5 µM | < 5 µM | < 5 µM
NC(=O)c1ccc(Nc2ncc3cccc(OC4CCNCC4)c3n2)cc1 [Compound 717, 4-(8-(piperidin-4-yloxy)quinazolin-2-ylamino)benzamide] | < 5 µM | < 5 µM | < 5 µM
O=S(=O)(NCCN1CCCC1)c1cccc(Nc2ncc3cccc(OC4CCNCC4)c3n2)c1 [Compound 811, 3-(8-(piperidin-4-yloxy)quinazolin-2-ylamino)-N-(2-(pyrrolidin-1-yl)ethyl)benzenesulfonamide] | < 5 µM | < 5 µM | 5 to 10 µM
NC(=O)c1ccc(-c2ccc3cnc(Nc4ccc(S(N)(=O)=O)cc4)nc3c2)cc1 [Compound 783, 4-(2-(4-sulfamoylphenylamino)quinazolin-7-yl)benzamide] | < 5 µM | < 5 µM | 5 to 10 µM
CN1CCN(c2cc(-c3cccc4cnc(Nc5ccc(S(N)(=O)=O)cc5)nc34)ccn2)CC1 [Compound 753, 4-(8-(2-(4-methylpiperazin-1-yl)pyridin-4-yl)quinazolin-2-ylamino)benzenesulfonamide] | < 5 µM | < 5 µM | < 5 µM
NS(=O)(=O)c1ccc(Nc2ncc3ccc(-c4cnc(=O)[nH]c4)cc3n2)cc1 [Compound 844, 4-(7-(2-oxo-1,2-dihydropyrimidin-5-yl)quinazolin-2-ylamino)benzenesulfonamide] | < 5 µM | < 5 µM | 5 to 10 µM
CC(=O)Nc1cccc(-c2cccc3cnc(Nc4ccc(S(N)(=O)=O)cc4)nc23)c1 [Compound 737, N-(3-(2-(4-sulfamoylphenylamino)quinazolin-8-yl)phenyl)acetamide] | < 5 µM | < 5 µM | < 5 µM
NS(=O)(=O)c1ccc(Nc2ncc3ccc(Br)c(OC4CCNCC4)c3n2)cc1 [Compound 845, 4-(7-bromo-8-(piperidin-4-yloxy)quinazolin-2-ylamino)benzenesulfonamide] | < 5 µM | < 5 µM | < 5 µM
NS(=O)(=O)c1ccc(Nc2ncc3ccc(C(=O)N4CCCC4)cc3n2)cc1 [Compound 820, 4-(7-(pyrrolidine-1-carbonyl)quinazolin-2-ylamino)benzenesulfonamide] | < 5 µM | < 5 µM | < 5 µM
NS(=O)(=O)c1ccc(Nc2ncc3cccc(C(=O)N4CCOCC4)c3n2)cc1 [Compound 768, 4-(8-(morpholine-4-cartbonyl)quinazolin-2-ylamino)benzenesulfonamide] | 5 to 10 µM | 5 to 10 µM | 5 to 10 µM
NS(=O)(=O)c1ccc(Nc2ncc3ccc(Nc4ccc5cn[nH]c5c4)cc3n2)cc1 [Compound 815, 4-(7-(1H-indazol-6-ylamino)quinazolin-2-ylamino)benzenesulfonamide] | < 5 µM | < 5 µM | < 5 µM
CC(C)N1CCC(Oc2cccc3cnc(Nc4cccc(S(=O)(=O)N5CCOCC5)c4)nc23)CC1 [Compound 774, 8-(1-isopropylpiperidin-4-yloxy)-N-(3-(morpholinosulfonyl)phenyl)quinazolin-2-amine] | < 5 µM | < 5 µM | < 5 µM
NS(=O)(=O)c1ccc(Nc2ncc3cccc(C(=O)N[C@H]4CN5CCC4CC5)c3n2)cc1 [Compound 807, (R)-N-(quinuclidin-3-yl)-2-(4-sulfamoylphenylamino)quinazoline-8-carboxamide] | 5 to 10 µM | 5 to 10 µM | 5 to 10 µM
COCCNS(=O)(=O)c1cccc(Nc2ncc3cccc(OC4CCNCC4)c3n2)c1 [Compound 777, N-(2-methoxyethyl)-3-(8-(piperidin-4-yloxy)quinazolin-2-ylamino)benzenesulfonamide] | < 5 µM | < 5 µM | 5 to 10 µM
CN1CCN(S(=O)(=O)c2cccc(Nc3ncc4cccc(OC5CCNCC5)c4n3)c2)CC1 [Compound 775, N-(3-(4-methylpiperazin-1-ylsulfonyl)phenyl)-8-(piperidin-4-yloxy)quinazolin-2-amine] | < 5 µM | < 5 µM | 5 to 10 µM
Cc1ccc(C(N)=O)c(NC(=O)c2ccc3cnc(Nc4ccc(S(N)(=O)=O)cc4)nc3c2)c1 [Compound 842, N-(2-carbamoyl-5-methylphenyl)-2-(4-sulfamoylphenylamino)quinazoline-7-carboxamide] | < 5 µM | < 5 µM | 5 to 10 µM
NC(=O)c1cccc(-c2cccc3cnc(Nc4ccc(S(N)(=O)=O)cc4)nc23)c1 [Compound 734, 3-(2-(4-sulfamoylphenylamino)quinazolin-8-yl)benzamide] | < 5 µM | < 5 µM | < 5 µM
CN1CCC(NC(=O)c2ccc3cnc(Nc4ccc(S(N)(=O)=O)cc4)nc3c2)CC1 [Compound 767, N-(1-methylpiperidin-4-yl)-2-(4-sulfamoylphenylamino)quinazoline-7-carboxamide] | < 5 µM | < 5 µM | 5 to 10 µM
CS(=O)(=O)Nc1cccc(-c2cccc3cnc(Nc4ccc(S(N)(=O)=O)cc4)nc23)c1 [Compound 736, 4-(8-(3-(methylsulfonamido)phenyl)quinazolin-2-ylamino)benzenesulfonamide] | < 5 µM | < 5 µM | < 5 µM
NS(=O)(=O)c1ccc(Nc2ncc3cccc(OC4CN5CCC4CC5)c3n2)cc1 (stereo not drawn) [Compound 722, 4-(8-(quinuclidin-3-yloxy)quinazolin-2-ylamino)benzenesulfonamide] | < 5 µM | < 5 µM | < 5 µM
COCCNc1cc(-c2cccc3cnc(Nc4ccc(S(N)(=O)=O)cc4)nc23)ccn1 [Compound 745, 4-(8-(2-(2-methoxyethylamino)pyridin-4-yl)quinazolin-2-ylamino)benzenesulfonamide] | < 5 µM | < 5 µM | < 5 µM
COCCN1CCN(C(=O)c2ccc3cnc(Nc4ccc(S(N)(=O)=O)cc4)nc3c2)CC1 [Compound 764, 4-(7-(4-(2-methoxyethyl)piperazine-1-carbonyl)quinazolin-2-ylamino)benzenesulfonamide] | 10 to 25 µM | 10 to 25 µM | 5 to 10 µM
NS(=O)(=O)c1ccc(Nc2ncc3cccc(-c4ccnc(N5CCOCC5)c4)c3n2)cc1 [Compound 752, 4-(8-(2-morpholinopyridin-4-yl)quinazolin-2-ylamino)benzenesulfonamide] | < 5 µM | < 5 µM | < 5 µM
